How the values were obtained:
PC-3 = test: CCK8 assay IC50; assay type: cell-based; conditions: Homo sapiens, PC-3, prostatic cancer, 72 h
Procedure: (§1) Cell viability was then detected using a CCK8 assay (MedChemExpress, USA) according to the manufacturer's instructions.
(§2) Statistical analyses of all data were performed using GraphPad Prism (version 8.0, Graph Pad Software Inc., San Diego, CA, USA). All the data were analyzed by Student's t-test or one-way ANOVA. The Z-Score was chosen to evaluate the results and experimental deviation. Quantitative data are presented as the mean ± SD. The asterisk (*) denotes statistically significant difference (P < 0.05). IC50 was calculated using a four-parameter fit with variable slope in GraphPad Prism.

PANC-1 = test: CCK8 assay IC50; assay type: cell-based; conditions: Homo sapiens, PANC-1, pancreatic cancer, 72 h
Procedure: as §1, §2

HCT-15 = test: CCK8 assay IC50; assay type: cell-based; conditions: Homo sapiens, HCT-15, colon cancer, 72 h
Procedure: as §1, §2

Caco-2 = test: CCK8 assay IC50; assay type: cell-based; conditions: Homo sapiens, Caco-2, colon cancer, 72 h
Procedure: as §1, §2

SH-SY5Y = test: CCK8 assay IC50; assay type: cell-based; conditions: Homo sapiens, neuroblastoma, 72 h
Procedure: as §1, §2

breast cancer cells = test: Transwell cell invasion assay; assay type: cell-based, human; conditions: matrigel transwell, P < 0.05
Procedure: Transwell chamber filters (BD) were coated with Matrigel diluted (1:10) in serum-free medium. […] After treatment, cells were digested and suspended in serum-free media. Cells (8,000 cells per well) were seeded into the upper chamber of the transwell chambers, and the chambers were transferred into 24-well plates containing 500 μl culture medium per well. After 20 h of incubation, cells in the upper chamber were fixed with 4% formaldehyde, washed with PBS, and stained with crystal violet for half an hour. Images of invasive cells were captured using a light microscope.

RGS2 promoter = test: qChIP of H3 acetylation; assay type: cell-based; conditions: MDA-MB-231, T-47D and 4T1 cells
Procedure: Briefly, the cells were cross-linked with 1% formaldehyde, sonicated, pre-cleared, and incubated with 4 μg of Ace-H3 antibody or IgG, which was followed by the addition of Dynabeads Protein G. Next, the beads were washed with high- and low-salt-concentration buffers, and DNA was eluted and purified using the QIAquick PCR Purification Kit. The amount of the DNA template was analyzed by qPCR using primers specific for five promoter regions.

MDA-MB-231 cells = test: Intracellular calcium measurement (Fluo-4-AM); assay type: cell-based, human; conditions: 100 nM or 200 nM for 24 h
Procedure: After treatment, the cells were digested and seeded in 96-well black plates (Corning Costar, Cambridge, MA, USA) and cultured for 20 h. For measurement of [Ca^2+]i, the cells were labeled with Fluo-4-AM in serum-free medium for half an hour at room temperature. After washing with Dulbecco's Phosphate Buffered Saline (D-PBS), cells were overlaid in Hank's balanced salt solution (5.4 mM KCl, 1 mM MgCl2, 20 mM hydroxyethyl piperazineethanesulfonic acid (HEPES), 120 mM NaCl, 10 mM glucose, 0.2 mM Ethylenebis(oxyethylenenitrilo)tetraacetic acid (EGTA)). Continuous fluorescence intensity was detected after thrombin was added as a calcium agonist by an automated sampler. Response over baseline was assessed as a relative measure of [Ca^2+]i.
As previously stated, studies have shown that the Ca^2+ signals can modulate cancer progression by regulating migration, proliferation, cell stress, and apoptosis.

[1] = system: MDA-MB-231 and primary breast tumor cells; test: EdU incorporation assay; assay type: cell-based, human; conditions: compared to DMSO treatment
Text: After that, DNA proliferation was detected using an EdU assay kit according to the manufacturer's instructions (RiboBio, Guangzhou, China).

MDA-MB-231 xenografts = test: MDA-MB-231 xenograft anti-tumor activity; assay type: in vivo, nude mice; conditions: i.v., 50 mg/kg
Procedure: MDA-MB-231 (5 × 10^6 cells) were inoculated into the left abdominal mammary fat pad of 6-week-old female nude mice, and tumor growth was monitored. […] After four weeks of treatment, all mice were sacrificed according to ethical guidelines. Tumors were excised and analyzed. Tumor volume was measured using a Vernier caliper and calculated according to the following formula: π/6 × length × width^2. All animal handling and procedures were approved by the Capital Medical University Institutional Animal Care. Tumor and adjacent tissues were rapidly fixed in 4% paraformaldehyde (Sigma-Aldrich) for at least 24 h and embedded in paraffin for microscopic examination. From the prepared paraffin blocks, 5-μm thick sections were cut and stained with hematoxylin and eosin (H&E) for light microscopic observation. Sections were processed as per standard protocols using 3,3'-diaminobenzidine (DAB) staining. All human and mouse tissues were collected according to protocols approved by the Ethics Committee of Capital Medical University, and informed consent was obtained from all patients.

[2] = system: MDA-MB-231, T-47D, and primary breast tumor cells; test: Colony formation assay; assay type: cell-based, human; conditions: crystal violet staining
Procedure: The colony-formation ability of MDA-MB-231 and T-47D cells were measured by the clonogenic assay. […] After treatment, cells were digested and suspended in culture medium at a density of 5 × 10^3 cells/ml. Cells (2,000 cells per well) were seeded into 6-well plates and cultured for two weeks. The, cells were fixed with 4% formaldehyde and washed with phosphate-buffered saline (PBS) and stained with crystal violet for half an hour. Images of colonies were captured using a light microscope.

CN(C)Cc1c(C(=O)NCCOc2ccc(C(=O)NO)cc2)oc2ccccc12 [PCI-24781]
IC50 (PC-3): 1220 nM
IC50 (PANC-1): 3000 nM
IC50 (HCT-15): 33000 nM
IC50 (Caco-2): 2000 nM
IC50 (SH-SY5Y): 6000 nM
invasive capacity (breast cancer cells): significant reduction in the invasive capacity
H3 acetylation at RGS2 promoter regions (qChIP) (RGS2 promoter): strong binding to RGS2 #2 and #3 promoter regions of H3 acetylation
influx of intracellular calcium ions induced by thrombin, ionomycin, and carbachol (MDA-MB-231 cells): completely inhibited
cell proliferation (EdU incorporation) [1]: decreased proliferation
Ki-67 staining of tumor tissues (MDA-MB-231 xenografts): inhibited tumor proliferation
tumor growth inhibition (MDA-MB-231 xenografts; every other day for four weeks, compared to control group, P < 0.0001): 74.6%
RGS2 IHC staining in tumor tissues (MDA-MB-231 xenografts; versus control group): more abundant and more intensely stained
colony formation [2]: decreased colony formation
